Measured values: patent US20160282364A1, “ASSAY FOR INSULIN-DEGRADING ENZYME (IDE) INHIBITORS” (PRESIDENT AND FELLOWS OF HARVARD COLLEGE, priority 2013, published 2016)
Entries after “also recorded” stand apart in the source; their conditions may differ.

Tests used:
[1] = Plasma protein binding assay; type: in vitro ADME
mice = assay: Blood pressure and heart rate in mouse CGRP model; type: in vivo
Protocol: CGRP is a potent microvascular vasodilator widely expressed in the central and peripheral nervous systems of vertebrates. Administration of CGRP resulting in supraphysiological plasma levels of CGRP results in temporary vasodilation, hypotension, and an increased heart rate.
Nine mice received 250 ng CGRP intravenously (t=0). […] The other five received a control injection of vehicle only.
In addition,the lower panel of FIG. 19 demonstates that the increase in heart rate observed initially after CGRP administration is similar in both groups, but that the heart rate remains […] and the heart change rate is decreased in 6bK-administered mice as compared to controls.

Wild-type mice = assay: Gastric emptying measurements; type: in vivo, mouse; details: 30 minutes post-gavage, vs vehicle and bisepi-6bK controls
Protocol: Trunk blood was obtained for plasma hormone measurements using the Multiplexed Mouse Metabolic Hormone panel (Milliplex, EMD Millipore) on a Luminex FlexMap 3D instrument. Gastric emptying was measured by dissection of stomachs 30 min after an oral glucose bolus (3.0 g/kg, 10 mL/kg) in sterile saline containing 0.1 mg/mL phenol red.
Gastric emptying measurements. Mice were fasted 14 h (8 pm to 10 am). Inhibitor or vehicle alone was injected i.p. as previously described, followed 30 min later by an oral glucose bolus (3.0 g/kg, 10 mL/kg) in sterile saline containing 0.1 mg/mL phenol red. At 30 min, the stomach was promptly dissected after CO2-euthanasia and stored on ice. The stomach contents were extracted into 2.5 mL EtOH (95%) by homogenization for 1 min using a probe sonicator. Tissue debris were decanted by centrifugation at 4000 g, followed by clearing at 15000 g for 15 min. The supernatant (1 mL) was mixed with 0.5 mL of aqueous NaOH (20 mM), and incubated at −20° C. for 1 h. The solution was centrifuged at 15,000 g for 15 min, and absorbance was determined at 565 nm. The spectrophotometer was blanked with the stomach contents of a mouse treated with colorless glucose solution. The absorbance was adjusted to the amount of glucose solution dosed to each mouse. Values are reported as mean±S.E.M relative to the original phenol red glucose solution. […]

[2] = test system: lean and DIO C57BL/6J mice; assay: Oral glucose tolerance test (OGTT); type: in vivo, mouse; details: lean (80 mg/kg) and DIO (60 mg/kg) mice, single i.p. dose 30 min before glucose gavage 3.0 g/kg, vs vehicle
Protocol: (§1) Wild-type lean C57BL/6J and diet-induced obese (DIO) C57BL/6J age-matched male mice were purchased from Jackson Laboratories, and used at ages 14-16, and 24-26 weeks respectively (>20 weeks of high-fat diet for the DIO mice). GCGR^/ mice were bred from heterozygous mice and used between 11 and 17 weeks. […] Blood glucose was measured from tail nicks using AccuCheck (Aviva) meters.
In vivo studies, general information. Wild-type C57BL/6J and diet-induced obese (DIO) C57BL/6J age-matched male adult mice were purchased from Jackson Laboratories. The age range was 13 to 15 weeks for lean mice, and 24 to 26 weeks for DIO mice. All animals were individually housed on a 14-h light, 10-h dark schedule at the Biology Research Infrastructure (BRI), Harvard University. Cage enrichment included cotton bedding and a red plastic hut. […]
Glucose tolerance tests GTT and blood glucose measurements. […] Blood glucose was measured using AccuCheck® meters (Aviva) from blood droplets obtained from a small nick at the tip of the tail, at timepoints −45, 0, 15, 30, 45, 60, 90 and 120 min with reference to the time of glucose injection. The area of the blood glucose response profile curve corresponding to each animal was calculated by the trapezoid method^17, using as reference each individual baseline blood glucose measurement prior to glucose administration (t=0). […]

[3] = test system: lean and DIO C57BL/6J mice; assay: i.p. injected glucose tolerance test (IPGTT); type: in vivo, mouse
Protocol: as §1
In vivo studies, general information. Wild-type C57BL/6J and diet-induced obese (DIO) C57BL/6J age-matched male adult mice were purchased from Jackson Laboratories. The age range was 13 to 15 weeks for lean mice, and 24 to 26 weeks for DIO mice. All animals were individually housed on a 14-h light, 10-h dark schedule at the Biology Research Infrastructure (BRI), Harvard University. Cage enrichment included cotton bedding and a red plastic hut. Water and food were available ad libitum, consisting respectively of normal chow (Prolab® RHM 3000) or high-fat diet (60 kcal % fat, D12492, Research Diets Inc.). All animal care and experimental procedures were in accordance with the standing committee on the Use of Animals in Research and Teaching at Harvard University, the guidelines and rules established by the Faculty of Arts and Sciences' Institutional Animal Care and Use Committee (IACUC), and the National Institutes of Health Guidelines for the Humane Treatment of Laboratory Animals. Glucagon-receptor knock-out (GCGR^−/−) mice were housed with a 14-h light and 10-h dark schedule and treated in accordance with the guidelines and rules approved by the IACUC at Albert Einstein College of Medicine, NY. Power analysis to determine animal cohort numbers was based on preliminary results and literature precedent, usually requiring between 5 and 8 animals per group. Animals were only excluded from the cohorts in cases of chronic weakness, which occurs among GCGR −/− mice, or when we identified occasional DIO mice with an outlier diabetic phenotype (>200 mg/dL fasting blood glucose). Age- and weight-matched mice were randomized to each treatment group. Double-blinding was not feasible.
Glucose tolerance tests GTT and blood glucose measurements. Prior to a glucose challenge, the animals were fasted for 14 h (8 pm to 10 am, during the dark cycle) while individually housed in a clean cage with inedible wood-chip as a floor substrate, cotton bedding and a red plastic hut. Inhibitor, vehicle or control compounds were administered by a single intraperitoneal (i.p.) injection 30 min prior to the glucose challenge. Dextrose was formulated in sterile saline (3 g in 10 mL total), and the dose was adjusted by fasted body weight. For oGTT, 3.0 g/kg dextrose was administered by gavage at a dose of 10 mL/kg, and for ipGTT, 1.5 g/kg dextrose injected at a dose of 5 mL/kg. Blood glucose was measured using AccuCheck® meters (Aviva) from blood droplets obtained from a small nick at the tip of the tail, at timepoints −45, 0, 15, 30, 45, 60, 90 and 120 min with reference to the time of glucose injection. The area of the blood glucose response profile curve corresponding to each animal was calculated by the trapezoid method^17, using as reference each individual baseline blood glucose measurement prior to glucose administration (t=0). […] Values are reported as mean±S.E.M. Statistics were performed using a two-tail Student's t-test, and significance levels shown in the figures are *p<0.05 versus vehicle control group or **p<0.01 versus vehicle control group.

[4] = Tissue distribution by stable isotope dilution LC-MS; type: in vivo, mouse; details: mice, 80 mg/kg i.p.
Protocol: Stable isotope dilution LC-MS, pharmacokinetics, and tissue distribution measurements. […] Tissue samples ( 100 mg) fromb 6K-treated mice and vehicle controls were weighed and disrupted in Dounce homogenizers with PBS buffer (0.5 mL/100 mg sample), supplemented with 5 μM heavy-6bK and protease inhibitor cocktail (1 tablet/50 mL PBS, Roche diagnostics). The lysate was incubated on ice for 30 min, sonicated 5 min and centrifuged at 13,000 g for 5 min. The bulk of supernatant proteins were precipitated by denaturation at 95° C. for 5 min, removed by centrifugation.

Compound: NCCCC[C@@H]1NC(=O)/C=C/C(=O)N[C@H](C(N)=O)CCCCNC(=O)[C@@H](Cc2ccc(C(=O)c3ccccc3)cc2)NC(=O)[C@H](CC2CCCCC2)NC1=O [Compound 6bK]
- unbound in plasma protein binding assay [1]: ~6%
- return of blood pressure to baseline / duration of CGRP-induced hypotension (mice; 1 mg 6bK i.p. 30 min before 250 ng CGRP i.v.): slower kinetics; also recorded: increases the duration
- baseline blood pressure (mice; mice, 1 mg 6bK i.p., vs vehicle): reduced; also recorded: lowered
- baseline heart rate (mice; mice, 1 mg 6bK, vs control): reduced
- slower gastric emptying of a labeled glucose solution (Wild-type mice): 2 fold
- oral glucose tolerance [2]: significantly improved; also recorded: improved glucose tolerance
- IPGTT response at low dose ([3]; DIO mice, 40 mg/kg): too low to achieve a consistent effect
- glucose response profile in IPGTT ([3]; DIO mice, 60 mg/kg, lower over initial 30 min, hyperglycemic rebound from 1 h): biphasic response
- IPGTT response at high dose ([3]; DIO mice, 90 mg/kg): respond similarly to 60 mg/kg
- effective dose ([3]; i.p., 80 mg/kg lean (25 g), 60 mg/kg DIO (35-45 g)): ~2 mg/mouse
- glucose tolerance after i.p. glucose injection ([3]; lean and DIO mice, glucose 1.5 g/kg i.p., vs vehicle): impaired glucose tolerance
- biodistribution into plasma, liver, kidney, and pancreatic tissues [4]: prompt biodistribution
- detection in the brain ([4]; 10-fold concentrated samples): did not detect
